Experimental findings from patent US8557800B2, “Sphingosine kinase inhibitors” (Apogee Biotechnology Corporation, priority 2005, dated 2013) are described below.

SMILES strings stand for the structures. Where “and” joins values, the source holds several entries; their conditions need not be identical. Equal values may be shown once. Read-outs that look alike come from different tables or passages of the source.

The test system of data set [1] is recombinant human SK. Description: Inhibition of recombinant human SK, LC/MS/MS assay. The data set is classed as biochemical. The note with it: 6 μg/ml compound. The method in brief: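 Enzyme incubated with unlabeled sphingosine and ATP (1 mM, as in the radiometric format) for 30 min, then stopped and extracted with acetonitrile. S1P quantified by C8 reverse-phase HPLC–MS/MS against C17 sphingosine and C17 S1P internal standards using calibration curves.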

Data set [2] deals with endogenous SK in MDA-MB-231 human breast carcinoma cells. Briefly: Intact cell SK assay, conversion of [3H]sphingosine to [3H]S1P. The data set is classed as cell-based. The note with it: MDA-MB-231 cells, 20 μg/ml compound. The source says: The cells take up the exogenous [^3H]sphingosine and convert it to [^3H]S1P through the action of endogenous SK. The resulting [^3H]S1P is isolated via charge-based separation as indicated above. […] For potency studies, MDA-MB-231 cells were exposure to varying concentrations of a test Compound and then assayed for conversion of [^3H]sphingosine to [^3H]S1P.

Data set [3] relates to MCF-10A non-transformed human breast epithelial cells. Description: Cytotoxicity, SRB binding assay. As to conditions: inhibition of cell proliferation, 48 h, read-out: MCF-10A IC50. The data set is classed as cell-based. The method, boiled down:
(§1)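 Cells exposed to varying compound doses for 48 h, then survival measured by sulforhodamine B staining. IC50 is the concentration giving 50% proliferation inhibition, in μM, as mean±sd of replicate trials.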

The test system of data set [4] is MCF-7 human breast adenocarcinoma cells. Description: Cytotoxicity, SRB binding assay. The note with it: MCF7, inhibition of cell proliferation, 48 h, read-out: MCF-7 IC50. The data set is classed as cell-based. The method, boiled down: as §1
Data set [5] relates to recombinant human SK. Description: Recombinant human SK assay with [3H]sphingosine. The data set is classed as biochemical. As to conditions: positive control. The method, then:
An assay for identifying inhibitors of recombinant human SK has been established (French et al., 2003, Cancer Res 63: 5962). cDNA for human SK was subcloned into a pGEX bacterial expression vector, which results in expression of the enzyme as a fusion protein with glutathione-S-transferase, and the fusion protein is then purified on a column of immobilized glutathione. SK activity is measured by incubation of the recombinant SK with [^3H]sphingosine and 1 mM ATP under defined conditions, followed by extraction of the assay mixture with chloroform:methanol under basic conditions. […] Radioactivity in aliquots of the aqueous phase is then quantified as a measure of [^3H]S1P formation. There is a low background level of partitioning of [^3H]sphingosine into the aqueous phase, and addition of the recombinant SK greatly increases the formation of [^3H]S1P.

For data set [6], the system named is 1025LU (melanoma). Description: Human tumor cell line panel, sulforhodamine B. The data set is classed as cell-based. The note with it: 48 hours, mean ± sd.
In data set [7] the test system is A-498 (kidney). Briefly: Human tumor cell line panel, sulforhodamine B. The data set is classed as cell-based. As to conditions: A498, 48 hours, mean ± sd.
Data set [8] relates to Caco-2 (colon). Briefly: Human tumor cell line panel, sulforhodamine B. Type of data set: cell-based. As to conditions: 48 hours, mean ± sd.
The test system of data set [9] is DU145 (prostate). Description: Human tumor cell line panel, sulforhodamine B. Type of data set: cell-based. The note with it: DU-145, 48 hours, mean ± sd.
Data set [10] has as its system Hep-G2 (liver). Briefly: Human tumor cell line panel, sulforhodamine B. The note with it: HepG2, 48 hours, mean ± sd. Type of data set: cell-based.
In data set [11] the test system is HT-29 (colon). Description: Human tumor cell line panel, sulforhodamine B. Type of data set: cell-based. As to conditions: 48 hours, mean ± sd.
Data set [12] concerns MCF-7 (breast, ER+). Briefly: Human tumor cell line panel, sulforhodamine B. The note with it: MCF7, 48 hours, mean ± sd. The data set is classed as cell-based.
The subject of data set [13] is MDA-MB-231 (breast, ER−). Briefly: Human tumor cell line panel, sulforhodamine B. Type of data set: cell-based. As to conditions: 48 hours, mean ± sd.
Data set [14] has as its system Panc-1 (pancreas). Briefly: Human tumor cell line panel, sulforhodamine B. The data set is classed as cell-based. As to conditions: 48 hours, mean ± sd.
The test system of data set [15] is SK-OV-3 (ovary). Description: Human tumor cell line panel, sulforhodamine B. The data set is classed as cell-based. The note with it: 48 hours, mean ± sd.
The subject of data set [16] is T24 (bladder). Briefly: Human tumor cell line panel, sulforhodamine B. Type of data set: cell-based. The note with it: 48 hours, mean ± sd.
Data set [17] is described as follows: Oral pharmacokinetics in mice (PEG400). As to conditions: mouse, blood, 100 mg/kg oral gavage in PEG400, female Swiss-Webster mice. The data set is classed as in vivo. On the procedure:
Oral pharmacokinetic studies were performed on Compounds 62 and 57. Each compound was dissolved in PEG400 and administered to female Swiss-Webster mice at a dose of 100 mg/kg by oral gavage. Mice were anesthetized and blood was removed via cardiac puncture at 5 minutes, 30 minutes, 1, 2, and 8 hours. Concentrations of the test compounds were determined using liquid-liquid extraction, appropriate internal standards and reverse phase HPLC with UV detection. Control blood samples were run to identify compound-specific peaks. Pharmacokinetic parameters were calculated using the WINNONLIN analysis software package (Pharsight). Non-compartmental and compartmental models were tested, with the results shown in Table 7 derived from the best fit equations.

The subject of data set [18] is mouse JC mammary adenocarcimona cell line growing subcutaneously in Balb/c mice. The method, then:
The antitumor activity of the representative SK inhibitors were evaluated using a syngeneic tumor model that uses the mouse JC mammary adenocarcimona cell line growing subcutaneously in immunocompetent Balb/c mice (Lee et al., 2003, Oncol Res 14: 49).
In FIG. 1, Balb/c mice, 6-8 weeks old, were injected subcutaneously with 10^6 JC cells suspended in phosphate-buffered saline. The SK inhibitors Compounds 62 and 57 were dissolved in PEG400 and administered to mice every-other day at a dose of 100 mg/kg. Body weights and tumor volumes were monitored daily. In FIG. 1, tumor growth is expressed as the tumor volume relative to day 1 for each animal.

Data set [19] is described as follows: physchem. The note with it: aqueous with cosolvent or surfactant or cyclodextrin.

One may read the IC50 as the point on the concentration scale where inhibition reaches its midpoint. On to `CCn1c2ccccc2c2cc(NCC34CC5CC(C3)CC(c3ccc(Cl)cc3)(C5)C4)ccc21` [Compound 89, [3-(4-Chloro-phenyl)-adamantan-1-ylmethyl]-(9-ethyl-9H-carbazol-3-yl)-amine], for which, in data set [1], the “Recombinant SK (% inhibition)” value came out at 37%. The “Cellular S1P (% inhibition)” value in data set [2] was determined as 1%. For the same compound, the values for the IC50 in data set [3] and in [4] were 41 µM and 74 µM, respectively.
Consider `O=C(NCc1ccc(O)c(O)c1)C12CC3CC(C1)CC(c1ccc(Cl)cc1)(C3)C2` [Compound 36, 3-(4-Chloro-phenyl)-adamantane-1-carboxylic acid 3,4-dihydroxy-benzylamide], for which the “Recombinant SK (% inhibition)” value in [1] worked out at 37%. Also, in data set [2], the “Cellular S1P (% inhibition)” value came to 72%. For the same compound, the values for the IC50 in data set [3] and in data set [4] were 9 µM and 13 µM, respectively.
Turning to `CCCCCCCCCCCCC/C=C/[C@@H](O)[C@H](CO)N(C)C` [DMS, D-erythro-N,N-dimethylsphingosine], the “concentration that completely inhibits SK activity” value in data set [5] was “above 25 μM”.
For the compound `O=C(NCCc1ccncc1)C12CC3CC(CC(C3)C1)C2` [Compound 63, Adamantane-1-carboxylic acid (2-pyridin-4-yl-ethyl)-amide], the “Recombinant SK (% inhibition)” value in data set [1] amounted to 0%. The “Cellular S1P (% inhibition)” value in data set [2] was 39%. Moreover, the IC50 in data set [4] was determined as 11 µM.
One may read the melting point as the temperature of the solid-liquid transition. Turning to `O=C(/C=C/c1ccc(O)cc1)C12CC3CC(C1)CC(c1ccc(Cl)cc1)(C3)C2` [Compound 132, 1-[3-(4-Chloro-phenyl)-adamantan-1-yl]-3-(4-hydroxy-phenyl)-propenone], the melting point lay in the range of 87 to 89 °C. For the same compound, the “Recombinant SK (% inhibition)” value in [1] is recorded as 8%. Moreover, the IC50 in data set [4] amounted to 17 µM.
The Cmax is the maximum level reached in the sampled fluid or tissue. The Tmax is the time from dosing to the highest level. As a reminder, the half-life is the time in which the quantity being followed falls by half. Higher therefore signals slow loss. As a reminder, the solubility is the dissolved amount per volume that the medium holds. In the case of `CN1CCCC1CCNC(=O)C12CC3CC(C1)CC(c1ccc(Cl)cc1)(C3)C2` (centres unmarked) [Compound 57, 3-(4-Chloro-phenyl)-adamantane-1-carboxylic acid [2-(1-methyl-pyrrolidin-2-yl)-ethyl]-amide], in data set [1], the “Recombinant SK (% inhibition)” value is 30%. In addition, the IC50 is 8 µM in data set [3]; 6 µM in [4]; 7.2 ± 0.8 µM in data set [6]; 8 ± 3.5 µM in data set [7]; 3.2 ± 2 µM in data set [8]; 8.7 ± 3.3 µM in data set [9]. For the same compound, the IC50 in data set [10] was determined as 5 ± 1.8 µM; in [11], 9.6 ± 4 µM; in data set [12] it was 12.1 ± 3.1 µM; in data set [13] it was 12.5 ± 2.5 µM; in [14], 14.1 ± 6.3 µM; in data set [15], 9.2 ± 2.8 µM. In [16], the IC50 stood at 12.7 ± 2.8 µM. In data set [17], the Cmax was found to be 3.8 µM. Further, the time of peak concentration (Tmax) in data set [17] is 2 h. Besides, the half-life in data set [17] was 19.3 h. In addition, the values for the AUC(0-inf) in data set [17] (read-out: AUC0→∞ (μM * h)) and in data set [17] (read-out: AUC0→∞ (μg * h/mL)) were 111 µM·h and 45000 ng·h/mL, respectively. In [18] (100 mg/kg oral every-other day in PEG400), the “inhibition of tumor growth relative to controls” value was determined as 78%. The In vivo activity result in data set [18] (JC tumor model, intraperitoneal (ip) or oral (po) administration) was “active - po”. Besides, the solubility in [19] is ≥ 15000 µg/mL and 30000 µM to 40000 µM.
Regarding `COc1ccc(CCNC(=O)C23CC4CC(C2)CC(c2ccc(Cl)cc2)(C4)C3)cc1` [Compound 41, 3-(4-Chloro-phenyl)-adamantane-1-carboxylic acid [2-(4-methoxy-phenyl)-ethyl]-amide], the “Recombinant SK (% inhibition)” value in data set [1] was determined as 67%. For the same compound, in [2], the “Cellular S1P (% inhibition)” value was 23%. Moreover, the IC50 in [3] was found to be 71 µM; in data set [4] it was 6 µM.
